Measured values reported in paper PMC12197678, “Cvill6 and Cvill7: Potent and Selective Peptide Blockers of Kv1.2 Ion Channel Isolated from Mexican Scorpion Centruroides villegasi” (Toxins, 2025).
Like-named read-outs stand apart in the source and are kept apart here. Positions of bridges follow the written chain, without caps; N, C: chain ends. Residues, ends and D or L forms follow the SMILES beside them.

Columns and labels:
hKv1.3 = molecular target: T1, hKv1.3 (Homo sapiens, UniProt P22001); experiment: cell-based; assay type: cell-based
T1 construct: peripheral blood mononuclear cells (PBMCs) were isolated from the healthy donor’s blood; endogenous in cells
From the text: Therefore, we aimed to investigate the effects of Cvill6 and Cvill7 on voltage-gated K^+ ion channels. Among the tested ion channels there were four members from the Shaker-related human Kv1 family, hKv1.1, hKv1.2, hKv1.3, and hKv1.5 (Figure 3A–E), and one member of the human ether-a-go-go-related (hERG) cardiac K^+ channel hKv11.1 (hERG1, Figure 3F). For current recordings, Kv1.1, Kv1.2, and Kv1.5 were transiently expressed in CHO cells while for Kv11.1 a stable HEK293 cell line was used. To record Kv1.3 currents human peripheral T lymphocytes were activated with Phytohemagglutinin A (PHA) to boost Kv1.3 expression and Ca^2+-free intracellular solution to prevent the KCa3.1 channel opening. […] Appropriate voltage protocols were applied to record the K^+ currents from voltage-clamped cells in whole-cell configurations. Toxins were freshly dissolved in the bath solution supplemented with 0.1 mg/mL BSA and applied to the patched cells via a gravity-fed micro-perfusion system with an approximate flow rate of 200 µL/min.
To avoid toxin adsorption onto the plastic surfaces of the perfusion system, 0.1 mg/mL of bovine serum albumin (BSA, Sigma-Aldrich, Budapest, Hungary) was also added into all bath solutions prior to the patch-clamp assay.
Whole-cell currents were recorded using the patch-clamp technique in voltage-clamp mode, following standard protocols. […] Micropipettes were made from GC150F-7.5 borosilicate capillaries (Harvard Apparatus Co., Holliston, MA, USA) using a Sutter P2000 laser puller with tip resistance generally ranging from 3–6 MΩ in the bath solution. Only recordings with a leak current at the holding potential (Vh) of <10% of the peak current at the test potential were included in the data analysis. All recordings were performed at room temperature (20–25 °C). Control and test solutions were perfused to the cells via a gravity-driven micro-perfusion system and AutoMate Perfusion Pencil Multi-Barrel Manifold Tip (AutoMate Scientific, Berkeley, CA, USA), with an approximate flow rate of 200 µL/min, and the excess amount of bath solution was continuously removed from the recording chamber using vacuum suction.
The duration of depolarization pulses was 15 ms for Kv1.3 and 50 ms for Kv1.1 and Kv1.5. However, for Kv1.2, 15–500 ms-long pulses were used to achieve the saturated peak current due to the variable activation kinetics of this channel. […] KCa2.2 and KCa3.1 currents were recorded by applying 150 ms-long voltage ramps to +50 mV from −120 mV every 10 s; the Vh was set to −85 mV.
Before analysis, all current traces were digitally filtered using three-point boxcar smoothing and were corrected for ohmic leakage, only if required. […] Data points in the concentration–response curve represent the mean RCF values of three to six individual cells, with error bars denoting the standard error of the mean (SEM). The data points for each concentration were fitted using the Hill equation: RCF = IC50^H/(IC50^H + [toxin]^H), where IC50 is the dissociation constant, H represents the Hill coefficient, and [toxin] is the concentration of the toxin.
To study the binding kinetics of Cvill toxins, the peak current during the application of toxin at time point t (It) was normalized to the peak current (I0) before the toxin exposure (Inorm = It/I0) and plotted as a function of time.

mKCa1.1 (BK or MaxiK) = assay type: cell-based, mice; settings: 100 nM; ~3 min
From the text: Therefore, we investigated the activity of Cvill6 and Cvill7 toxins on three different types of Ca^2+-activated K^+ channels: (1) hKCa2.2 (SK2), the small-conductance Ca^2+-activated channel; (2) hKCa3.1 (IKCa1, SK4), the intermediate-conductance Ca^2+-activated channels, mainly expressed in T lymphocytes; and (3) mKCa1.1 (BK or MaxiK), the large-conductance voltage- and Ca^2+- activated channel of mice. Appropriate depolarization protocols were applied to record the K^+ current through respective KCa channels as shown in the inset of each panel in Figure 6A–C. […] The normalized peak currents (see Section 2.4 or Section 5 for details) for individual cells (n = 5) were averaged at each time point and plotted as a function of time.
HEK 293 cells stably expressing mKCa1.1 1 (BKCa, Kcnma1 gene, generously provided by C. Beeton from Baylor College of Medicine, Houston, TX, USA) or hKv11.1 (hERG1, KCNH2 gene, gifted by H. Wulff from University of California, Davis, CA, USA) were utilized in this study.
Whole-cell currents were recorded using the patch-clamp technique in voltage-clamp mode, following standard protocols [73]. […]

[1] = read-out: inhibition of hKv1.3 current

T1 sequence (P22001 whole entry): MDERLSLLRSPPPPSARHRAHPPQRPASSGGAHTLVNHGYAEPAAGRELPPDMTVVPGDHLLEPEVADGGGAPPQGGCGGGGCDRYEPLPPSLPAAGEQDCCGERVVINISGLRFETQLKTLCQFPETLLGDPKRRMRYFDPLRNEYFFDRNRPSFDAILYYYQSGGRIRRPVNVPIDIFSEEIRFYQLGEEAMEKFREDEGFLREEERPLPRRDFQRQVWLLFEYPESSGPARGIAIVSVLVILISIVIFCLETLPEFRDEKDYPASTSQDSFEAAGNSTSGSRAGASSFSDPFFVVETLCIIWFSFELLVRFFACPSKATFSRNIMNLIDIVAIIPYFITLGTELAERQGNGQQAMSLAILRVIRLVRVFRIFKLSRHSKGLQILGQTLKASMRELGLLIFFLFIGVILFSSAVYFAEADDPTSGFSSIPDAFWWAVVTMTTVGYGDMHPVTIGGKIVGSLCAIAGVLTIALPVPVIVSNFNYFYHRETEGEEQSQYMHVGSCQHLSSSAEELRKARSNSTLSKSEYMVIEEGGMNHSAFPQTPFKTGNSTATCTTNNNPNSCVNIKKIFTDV

Compound | IC50 (hKv1.3) [nM] | Kd (hKv1.3) [nM] | koff (hKv1.3) [s⁻¹] | kon (hKv1.3) [M⁻¹ s⁻¹] | reversibility of Kv1.3 block (hKv1.3; 15 nM, then toxin-free solution) | equilibrium block of Kv1.3 (hKv1.3; 15 nM, n = 3) [%] | τon (development of block) (hKv1.3; Kv1.3, 15 nM, mean ± SEM, n = 3) [s] | τon, representative fit (hKv1.3; Kv1.3, 15 nM, representative fit (Figure S5B)) [s] | Hill coefficient (H) (hKv1.3; Kv1.3, Hill equation fit of RCF values) | τoff (wash-out) (hKv1.3; Kv1.3, after 15 nM, mean ± SEM, n = 3) [s] | τoff, representative fit (hKv1.3; Kv1.3, after 15 nM, representative fit (Figure S5B)) [s] | inhibition at 0.1 µM (hKv1.3; [1]) [%] | effect on KCa1.1 current (mKCa1.1 (BK or MaxiK)) | potency estimated from few doses (hKv1.3; read-out: estimated IC50) [nM] | inhibition at 0.1 µM (hKv1.3; read-out: inhibition of Kv1.3) [%]
CC[C@H](C)[C@H](NC(=O)[C@H](Cc1ccccc1)NC(=O)[C@@H](N)[C@@H](C)O)C(=O)N[C@@H](CC(N)=O)C(=O)N[C@H](C(=O)N[C@@H](CCCCN)C(=O)N[C@H]1CSSC[C@@H]2NC(=O)[C@H](CCCCN)NC(=O)CNC(=O)CNC(=O)[C@H](C)NC(=O)[C@H](Cc3c[nH]cn3)NC(=O)[C@@H]3CCCN3C(=O)CNC(=O)[C@H](Cc3ccc(O)cc3)NC(=O)[C@H](CC(C)C)NC(=O)[C@H](CC(=O)O)NC(=O)[C@H](CCCCN)NC(=O)[C@@H]3CSSC[C@@H](C(=O)N[C@@H](Cc4ccc(O)cc4)C(=O)N[C@@H](CC(N)=O)C(=O)N[C@@H](CC(N)=O)C(N)=O)NC(=O)[C@H](CCCCN)NC(=O)[C@H](CSSC[C@H](NC(=O)[C@H](CCC(N)=O)NC(=O)[C@H](CCCCN)NC(=O)[C@@H]4CCCN4C(=O)[C@H](CO)NC(=O)[C@H]([C@@H](C)O)NC1=O)C(=O)N[C@@H](CC(C)C)C(=O)N[C@@H](CCCCN)C(=O)N1CCC[C@H]1C(=O)N3)NC(=O)[C@H](CCCCN)NC(=O)CNC(=O)[C@H](CC(N)=O)NC(=O)[C@H](CCSC)NC2=O)C(C)C [Cvill7] (H-TFINVKCTSPKQCLKPCKDLYGPHAGGKCMNGKCKCYNN-NH2; disulfide 7-29, 13-34, 17-36; N-terminus and C-terminus assumed) | 7.2 ± 0.64 | 25 | 0.032 ± 0.0068 | 1.3e+06 | fully reversible with rapid association and dissociation kinetics | 67 ± 3 | 20 ± 1.8 | 22.6 | 0.73 | 34 ± 6 | 34.5 | ~86 | Neither Cvill6 nor Cvill7 showed any effect |  | 
CC[C@H](C)[C@H](N)C(=O)N[C@@H](Cc1ccccc1)C(=O)N[C@H](C(=O)N[C@@H](CC(N)=O)C(=O)N[C@H](C(=O)N[C@@H](CCCCN)C(=O)N[C@H]1CSSC[C@@H]2NC(=O)[C@H](CCCCN)NC(=O)CNC(=O)CNC(=O)[C@H](C)NC(=O)[C@H](Cc3c[nH]cn3)NC(=O)[C@H](CCC(N)=O)NC(=O)CNC(=O)[C@H](Cc3ccccc3)NC(=O)[C@H](CCCNC(=N)N)NC(=O)[C@H](CC(=O)O)NC(=O)[C@H](CCCCN)NC(=O)[C@@H]3CSSC[C@@H](C(=O)N[C@@H](Cc4ccc(O)cc4)C(=O)N4CCC[C@H]4C(=O)O)NC(=O)[C@H](CCCCN)NC(=O)[C@H](CSSC[C@H](NC(=O)[C@H](CCC(N)=O)NC(=O)[C@H](CCC(N)=O)NC(=O)[C@@H]4CCCN4C(=O)[C@H](CC(C)C)NC(=O)[C@H](CC(=O)O)NC1=O)C(=O)N[C@@H](CC(C)C)C(=O)N[C@@H](CCCNC(=N)N)C(=O)N1CCC[C@H]1C(=O)N3)NC(=O)[C@H](CCCCN)NC(=O)CNC(=O)[C@H](CC(N)=O)NC(=O)[C@H]([C@@H](C)CC)NC2=O)C(C)C)[C@@H](C)CC [Cvill6] (H-IFINVKCDLPQQCLRPCKDRFGQHAGGKCINGKCKCYP-OH; disulfide 7-29, 13-34, 17-36 (inferred); N-terminus and C-terminus assumed) |  |  |  |  |  |  |  |  |  |  |  | ~13 | Neither Cvill6 nor Cvill7 showed any effect | ~840 | ~11
